Experimental findings from ChEMBL document CHEMBL3593202, “Design, Synthesis, and Characterization of 3-(Benzylidene)indolin-2-one Derivatives as Ligands for α-Synuclein Fibrils” (J Med Chem, 2015) are described below.

What is called Ki is the equilibrium dissociation constant of an inhibitor or competing ligand from its target. In general, logP refers to a log measure of how a compound divides between an organic and an aqueous phase. A higher logP goes with a more lipophilic compound. Usually Kd stands for the free concentration of one partner at which half of the binding sites on the other are occupied at equilibrium, for simple one-to-one binding.

In data set [1] the target is T1, Alpha-synuclein (Homo sapiens, UniProt P37840). In words: Displacement of Thio-T from recombinant alpha-synuclein (unknown origin) expressed in Escherichia coli after 1.5 hrs by fluorescence assay.
Data set [2] deals with T2, Microtubule-associated protein tau (Homo sapiens, UniProt P10636). Nature of the data set: Displacement of Thio-T from human recombinant tau (243 to 375) expressed in Escherichia coli BL21(DE3)RIL after 1.5 hrs by fluorescence assay.
T2 sequence (P10636 whole entry): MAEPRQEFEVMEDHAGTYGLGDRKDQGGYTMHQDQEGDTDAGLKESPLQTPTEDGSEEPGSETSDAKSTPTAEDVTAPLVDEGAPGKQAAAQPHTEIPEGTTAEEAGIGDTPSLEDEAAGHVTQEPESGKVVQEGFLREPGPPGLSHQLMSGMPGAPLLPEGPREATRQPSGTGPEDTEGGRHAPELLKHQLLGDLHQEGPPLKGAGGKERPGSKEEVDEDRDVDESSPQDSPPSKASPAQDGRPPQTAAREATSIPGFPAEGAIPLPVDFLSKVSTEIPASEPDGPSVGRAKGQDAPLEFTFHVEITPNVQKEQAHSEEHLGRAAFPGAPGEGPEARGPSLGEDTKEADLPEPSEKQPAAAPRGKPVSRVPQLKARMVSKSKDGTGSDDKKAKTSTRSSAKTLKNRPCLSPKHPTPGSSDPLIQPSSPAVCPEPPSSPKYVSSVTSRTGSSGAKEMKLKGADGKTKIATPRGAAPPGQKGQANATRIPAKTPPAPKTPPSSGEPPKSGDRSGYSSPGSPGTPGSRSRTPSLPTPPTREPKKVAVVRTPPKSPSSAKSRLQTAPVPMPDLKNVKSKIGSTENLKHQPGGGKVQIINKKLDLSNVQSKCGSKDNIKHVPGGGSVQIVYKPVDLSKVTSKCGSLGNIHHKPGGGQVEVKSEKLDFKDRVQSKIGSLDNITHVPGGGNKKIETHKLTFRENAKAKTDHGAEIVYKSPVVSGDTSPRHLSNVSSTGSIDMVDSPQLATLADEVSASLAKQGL
For data set [3], the target named is T3, Amyloid-beta precursor protein (Homo sapiens, UniProt P05067). Nature of the data set: Displacement of Thio-T from synthetic amyloid beta (1 to 42) (unknown origin) after 1.5 hrs by fluorescence assay.
T3 sequence (P05067 whole entry): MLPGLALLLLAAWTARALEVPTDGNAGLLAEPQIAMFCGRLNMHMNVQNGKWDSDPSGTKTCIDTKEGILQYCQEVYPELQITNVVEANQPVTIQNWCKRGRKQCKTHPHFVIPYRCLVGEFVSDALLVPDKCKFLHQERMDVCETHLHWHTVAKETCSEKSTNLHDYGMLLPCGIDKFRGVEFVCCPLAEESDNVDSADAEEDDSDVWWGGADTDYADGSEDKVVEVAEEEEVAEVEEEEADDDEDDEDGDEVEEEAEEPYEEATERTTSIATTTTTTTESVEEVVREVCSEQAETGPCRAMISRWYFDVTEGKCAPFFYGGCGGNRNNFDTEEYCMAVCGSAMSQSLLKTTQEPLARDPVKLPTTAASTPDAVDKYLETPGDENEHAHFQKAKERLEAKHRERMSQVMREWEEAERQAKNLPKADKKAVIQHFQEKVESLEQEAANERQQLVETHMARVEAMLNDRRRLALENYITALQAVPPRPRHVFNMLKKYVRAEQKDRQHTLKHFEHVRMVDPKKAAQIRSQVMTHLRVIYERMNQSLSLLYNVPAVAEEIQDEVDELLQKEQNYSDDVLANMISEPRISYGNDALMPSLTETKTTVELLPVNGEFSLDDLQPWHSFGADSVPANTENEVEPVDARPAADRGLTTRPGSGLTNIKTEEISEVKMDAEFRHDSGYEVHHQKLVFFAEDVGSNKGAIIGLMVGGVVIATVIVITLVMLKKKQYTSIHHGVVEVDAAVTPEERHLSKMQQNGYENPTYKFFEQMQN
Data set [4] can be described thus: Lipophilicity, log P of the compound. As to conditions: octanol/water. In kind it is physicochemical.
In data set [5] the target is T1, Alpha-synuclein. In words: Binding affinity to recombinant alpha-synuclein (unknown origin) expressed in Escherichia coli after 1 hr by scintillation counting.
The target in data set [6] is T3, Amyloid-beta precursor protein. Nature of the data set: Binding affinity amyloid beta (1 to 42) (unknown origin) expressed in Escherichia coli after 1 hr by scintillation counting.
In data set [7] the target is T2, Microtubule-associated protein tau. Nature of the data set: Binding affinity human recombinant tau (243 to 375) expressed in Escherichia coli BL21(DE3)RIL after 1 hr by scintillation counting.
Data set [8] concerns the target T3, Amyloid-beta precursor protein. In words: Binding affinity to amyloid beta in alzheimer's diseased human brain tissue at 5 uM after 20 mins by fluorescence microscopic analysis.

Activity calls are given as the source filed them. The rule behind the calls is not given here.

As for `O=C1Nc2ccccc2/C1=C/c1ccc([N+](=O)[O-])cc1`, the Ki came to 347 nM in data set [1], 362 nM in data set [2] and 325 nM in data set [3].

For `CN(C)c1ccc(/C=C2\C(=O)N(Cc3ccccc3)c3ccccc32)cc1`, the values for the inhibition constant (Ki) in data set [1], in data set [2] and in data set [3] were 144 nM, 798 nM and 260 nM, respectively.

Turning to `CN(C)c1ccc(/C=C2\C(=O)N(Cc3ccncc3)c3ccccc32)cc1`, the figures for the inhibitory constant (Ki) in data set [1] and in data set [2] were 150 nM and 364 nM, respectively.

On to `CN(C)c1ccc(/C=C/C=C2\C(=O)N(Cc3ccncc3)c3ccccc32)cc1`, for which the inhibition constant (Ki) amounted to 92 nM in data set [1] and 188 nM in data set [2].

`O=C1Nc2ccccc2/C1=C\c1ccc([N+](=O)[O-])cc1`: the inhibition constant Ki in data set [1] came out at 622 nM; in data set [2] it was 528 nM; in data set [3], 439 nM.

As for `O=C1/C(=C\c2ccc([N+](=O)[O-])cc2)c2ccccc2N1Cc1ccccc1`, the Ki in data set [1] is 483 nM; in data set [2], 1760 nM; in data set [3], 460 nM.

Take `O=C1/C(=C/c2ccc([N+](=O)[O-])cc2)c2ccccc2N1Cc1ccccc1`: the inhibition constant (Ki) in data set [1] was found to be 959 nM; in data set [2], 1410 nM; in data set [3], 695 nM.

In the case of `O=C1Nc2ccccc2/C1=C/C=C/c1ccc([N+](=O)[O-])cc1`, the Ki is 14.6 nM in data set [1], 27.1 nM in data set [2] and 36.2 nM in data set [3].

For `O=C1Nc2ccccc2/C1=C\C=C\c1ccc([N+](=O)[O-])cc1`, the Ki in data set [1] amounted to 211 nM; in data set [2] it was 209 nM; in data set [3], 60 nM.

Regarding `O=C1/C(=C\C=C\c2ccc([N+](=O)[O-])cc2)c2ccccc2N1Cc1ccccc1`, the inhibition constant (Ki) was determined as 25 nM in data set [1], 121 nM in data set [2] and 214 nM in data set [3].

Regarding `O=C1/C(=C/C=C/c2ccc([N+](=O)[O-])cc2)c2ccccc2N1Cc1ccccc1`, the Ki in data set [1] is 193 nM; in data set [2], 590 nM; in data set [3] it was 235 nM.

Regarding `COc1ccc(CN2C(=O)/C(=C\C=C\c3ccc([N+](=O)[O-])cc3)c3ccccc32)cc1`, the Ki in data set [1] came out at 12.9 nM; in data set [2] it was 72.4 nM; in data set [3] it was 131 nM.

On to `COc1ccc(CN2C(=O)/C(=C/C=C/c3ccc([N+](=O)[O-])cc3)c3ccccc32)cc1`, for which the inhibitory constant (Ki) in data set [1] was found to be 81.9 nM; in data set [2], 318 nM; in data set [3], 138 nM.

As for `COc1cccc(CN2C(=O)/C(=C\C=C\c3ccc([N+](=O)[O-])cc3)c3ccccc32)c1`, the figures for the Ki in data set [1], in data set [2] and in data set [3] were 3.8 nM, 229 nM and 110 nM, respectively.

`COc1cccc(CN2C(=O)/C(=C/C=C/c3ccc([N+](=O)[O-])cc3)c3ccccc32)c1`: the values for the Ki in data set [1], in data set [2] and in data set [3] were 64.7 nM, 355 nM and 265 nM, respectively.

With `COc1ccc(CN2C(=O)/C(=C\C=C\c3ccc([N+](=O)[O-])cc3)c3ccccc32)cc1OC`, the Ki in data set [1] came to 3.5 nM; in data set [2] it was 152 nM; in data set [3], 73.6 nM.

Consider `COc1ccc(CN2C(=O)/C(=C/C=C/c3ccc([N+](=O)[O-])cc3)c3ccccc32)cc1OC`, for which the figures for the inhibition constant (Ki) in data set [1], in data set [2] and in data set [3] were 53.3 nM, 630 nM and 130 nM, respectively.

For the compound `O=C1/C(=C\C=C\c2ccc([N+](=O)[O-])cc2)c2ccccc2N1Cc1ccc(OCCF)cc1`, the Ki in data set [1] is 2.1 nM; in data set [2], 80.1 nM; in data set [3], 142 nM. Further, in data set [4], the logP is 4.18.

As to `O=C1/C(=C/C=C/c2ccc([N+](=O)[O-])cc2)c2ccccc2N1Cc1ccc(OCCF)cc1`, the inhibition constant Ki in data set [1] was found to be 76.1 nM; in data set [2] it was 456 nM; in data set [3], 125 nM.

Turning to `O=C1/C(=C\C=C\c2ccc([N+](=O)[O-])cc2)c2ccccc2N1Cc1ccc(OCC[18F])cc1`, the Kd in data set [5] was 8.9 nM; in data set [6], 271 nM; in data set [7], 50 nM.

With `CN(C)c1ccc(/C=C2\C(=O)Nc3ccccc32)cc1` (mixture of isomers), the values for the inhibition constant (Ki) in data set [1], in data set [2] and in data set [3] were 84.4 nM, 261 nM and 91.6 nM, respectively.

For `CN(C)c1ccc(/C=C2\C(=O)N(c3ccccc3)c3ccccc32)cc1` (mixture of isomers), the Ki in data set [1] was 290 nM; in data set [2] it was 790 nM; in data set [3], 179 nM.

Take `CN(C)c1ccc(/C=C2\C(=O)Nc3ncccc32)cc1` (mixture of isomers): the figures for the Ki in data set [1], in data set [2] and in data set [3] were 124 nM, 191 nM and 40 nM, respectively.

For the compound `CN(C)c1ccc(/C=C2\C(=O)Nc3ccc(O)cc32)cc1` (mixture of isomers), the values for the Ki in data set [1], in data set [2] and in data set [3] were 407 nM, 212 nM and 94.8 nM, respectively.

As to `COc1ccc(CN2C(=O)/C(=C\c3ccc(N(C)C)cc3)c3ccccc32)cc1` (mixture of isomers), the Ki in data set [1] amounted to 114 nM; in data set [2] it was 432 nM; in data set [3], 251 nM.

Consider `CCOC(=O)N1C(=O)/C(=C\c2ccc(N(C)C)cc2)c2ccccc21` (mixture of isomers), for which the Ki in data set [1] came out at 343 nM; in data set [2], 1120 nM; in data set [3] it was 140 nM.

With `CN(C)c1ccc(/C=C2\C(=O)N(Cc3ccccc3)c3ncccc32)cc1` (mixture of isomers), the inhibition constant Ki in data set [1] amounted to 350 nM; in data set [2], 859 nM; in data set [3], 190 nM.

With `COc1ccc(CN2C(=O)/C(=C\c3ccc(N(C)C)cc3)c3cccnc32)cc1` (mixture of isomers), the Ki in data set [1] amounted to 79.5 nM; in data set [2] it was 853 nM; in data set [3] it was 113 nM.

As to `O=C1Nc2ccccc2/C1=C/C=C/c1ccccc1` (mixture of isomers), the inhibitory constant (Ki) in data set [1] is 207 nM; in data set [2] it was 522 nM; in data set [3] it was 267 nM.

Turning to `COc1ccc(/C=C/C=C2\C(=O)Nc3ccccc32)cc1` (mixture of isomers), the Ki in data set [1] came out at 61.1 nM; in data set [2], 169 nM; in data set [3], 126 nM.

In the case of `CN(C)c1ccc(/C=C/C=C2\C(=O)Nc3ccccc32)cc1` (mixture of isomers), the results for the inhibition constant Ki in data set [1], in data set [2] and in data set [3] were 40.7 nM, 53.7 nM and 27.6 nM, respectively. In addition, the result in data set [8] was Active.

Consider `CN(C)c1ccc(/C=C/C=C2\C(=O)Nc3ncccc32)cc1` (mixture of isomers), for which the Ki stood at 11.5 nM in data set [1], 35.1 nM in data set [2] and 15.3 nM in data set [3].

On to `CN(C)c1ccc(/C=C/C=C2\C(=O)Nc3ccc(O)cc32)cc1` (mixture of isomers), for which the Ki in data set [1] amounted to 54 nM; in data set [2] it was 48 nM; in data set [3], 37.1 nM.

As to `O=C1/C(=C\C=C\c2ccccc2)c2ccccc2N1Cc1ccccc1` (mixture of isomers), the inhibition constant Ki in data set [1] is 227 nM; in data set [2] it was 682 nM; in data set [3], 703 nM.

For the compound `COc1ccc(/C=C/C=C2\C(=O)N(Cc3ccccc3)c3ccccc32)cc1` (mixture of isomers), the values for the Ki in data set [1], in data set [2] and in data set [3] were 72.5 nM, 718 nM and 741 nM, respectively.

`CN(C)c1ccc(/C=C/C=C2\C(=O)N(C)c3ccccc32)cc1` (mixture of isomers): the Ki in data set [1] turned out to be 63.7 nM; in data set [2], 229 nM; in data set [3], 56 nM.

For the compound `CN(C)c1ccc(/C=C/C=C2\C(=O)N(Cc3ccccc3)c3ccccc32)cc1` (mixture of isomers), the inhibition constant (Ki) turned out to be 40.9 nM in data set [1], 374 nM in data set [2] and 358 nM in data set [3].

As to `COc1ccc(CN2C(=O)/C(=C\C=C\c3ccc(N(C)C)cc3)c3ccccc32)cc1` (mixture of isomers), the Ki is 54.6 nM in data set [1], 240 nM in data set [2] and 130 nM in data set [3].

Regarding `CN(C)c1ccc(/C=C/C=C2\C(=O)N(Cc3ccc([N+](=O)[O-])cc3)c3ccccc32)cc1` (mixture of isomers), the inhibitory constant (Ki) in data set [1] came out at 4.2 nM; in data set [2] it was 90 nM; in data set [3] it was 92.4 nM.

Take `CCOC(=O)N1C(=O)/C(=C\C=C\c2ccc(N(C)C)cc2)c2ccccc21` (mixture of isomers): the Ki was determined as 45.3 nM in data set [1], 263 nM in data set [2] and 84 nM in data set [3].

`CN(C)c1ccc(/C=C/C=C2\C(=O)N(Cc3ccccc3)c3ncccc32)cc1` (mixture of isomers): the values for the Ki in data set [1], in data set [2] and in data set [3] were 68.3 nM, 257 nM and 85.1 nM, respectively.

Take `COc1ccc(CN2C(=O)/C(=C\C=C\c3ccc(N(C)C)cc3)c3cccnc32)cc1` (mixture of isomers): the inhibitory constant (Ki) in data set [1] turned out to be 29.8 nM; in data set [2] it was 204 nM; in data set [3], 107 nM.

For `CN(C)c1ccc(/C=C/C=C2\C(=O)N(Cc3ccc(N)cc3)c3ccccc32)cc1` (mixture of isomers), the values for the Ki in data set [1], in data set [2] and in data set [3] were 43.6 nM, 131 nM and 98.9 nM, respectively.

On to `CN(C)c1ccc(/C=C/C=C2\C(=O)N(c3ccccc3)c3ccccc32)cc1` (mixture of isomers), for which the Ki in data set [1] is 68.1 nM; in data set [2], 465 nM; in data set [3] it was 287 nM.

Regarding `Nc1ccc(/C=C/C=C2\C(=O)Nc3ccccc32)cc1` (mixture of isomers), the figures for the inhibition constant Ki in data set [1], in data set [2] and in data set [3] were 44.8 nM, 38.3 nM and 50.8 nM, respectively.

For the compound `CN(C)c1ccc(/C=C2\C(=O)N(C)c3ccccc32)cc1` (mixture of isomers), the values for the inhibition constant Ki in data set [1], in data set [2] and in data set [3] were 508 nM, 618 nM and 155 nM, respectively.
